Experimental data reported in patent US20260102383A1, “LPAR1 Inhibitors” (AbbVie Inc., priority 2024, published 2026).

Target: T1, human LPAR1 (Homo sapiens, UniProt Q92633)
T1 construct: host or cells: TangoEDG2-bla U2OS cells
Assay: Arrestin assay (Arrestin Reporter EDG2-bla U2OS), inhibition of LPA-stimulated signal
Type: cell-based
Details: TangoEDG2-bla U2OS cells expressing human LPAR1; 0.25 μM LPA; read-out: Arrestin Reporter EDG2-bla U2OS Human Merged IC50
Summary of the method: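 IC50 comes from a variable-slope 4-parameter fit of % inhibition, calculated from the beta-lactamase FRET ratio (emission 460/530 nm, excitation 409 nm, 2 h development at RT). Compounds, 10 μM down to 0.00006 μM in 3-fold steps, were given 1 h before 0.25 μM final LPA for 3 h in TangoEDG2-bla U2OS cells.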

T1 sequence (Q92633 whole entry): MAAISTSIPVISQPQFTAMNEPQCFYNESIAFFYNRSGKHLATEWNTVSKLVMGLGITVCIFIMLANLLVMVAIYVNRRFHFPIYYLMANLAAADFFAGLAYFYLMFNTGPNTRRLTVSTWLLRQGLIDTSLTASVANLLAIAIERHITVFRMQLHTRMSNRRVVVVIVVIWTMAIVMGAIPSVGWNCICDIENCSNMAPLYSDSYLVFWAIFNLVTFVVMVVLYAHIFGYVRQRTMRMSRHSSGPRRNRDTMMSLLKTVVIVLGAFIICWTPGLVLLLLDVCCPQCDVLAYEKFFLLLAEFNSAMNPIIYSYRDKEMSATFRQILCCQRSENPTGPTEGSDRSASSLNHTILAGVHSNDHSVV

SMILES | IC50
COC[C@@H](CN1CCC(C(=O)Nc2ccc(Cl)cc2OC(F)F)(n2nccc2C(C)C)CC1)C(=O)O (single isomer, unassigned) [Compound 119] | 15.5 nM
CC(C)c1ccnn1C1(C(=O)Nc2ccc(Cl)cc2OC(F)F)CCN(C[C@H](C(=O)O)c2cccnc2)CC1 [Compound 25, (2R)-3-[4-[[4-chloro-2-(difluoromethoxy)phenyl]carbamoyl]-4-(5-isopropylpyrazol-1-yl)-1-piperidyl]-2-(3-pyridyl)propanoic acid] | 28 nM
CC(C)c1ccnn1C1(C(=O)Nc2ccc(Cl)cc2OC(F)F)CCN(CC2(C(=O)O)Cc3ccccc3C2)CC1 [Compound 63, 2-[[4-[[4-chloro-2-(difluoromethoxy)phenyl]carbamoyl]-4-(5-isopropylpyrazol-1-yl)-1-piperidyl]methyl]indane-2-carboxylic acid] | 4.5 nM
CC(C)c1ccnn1C1(C(=O)Nc2ccc(Cl)cc2OC(F)F)CCN(CC2(C(=O)O)CCCC2)CC1 [Compound 12, 1-[[4-[[4-chloro-2-(difluoromethoxy)phenyl]carbamoyl]-4-(5-isopropylpyrazol-1-yl)-1-piperidyl]methyl] cyclopentanecarboxylic acid] | 11.4 nM
CC(C)c1ccnn1C1(C(=O)Nc2ccc(Cl)cc2OC(F)F)CCN(CC2(C(=O)O)CCC(=O)CC2)CC1 [Compound 27, 1-[[4-[[4-chloro-2-(difluoromethoxy)phenyl]carbamoyl]-4-(5-isopropylpyrazol-1-yl)-1-piperidyl]methyl]-4-oxo-cyclohexanecarboxylic acid] | 14.2 nM
CO[C@]1(C(=O)O)C[C@@H](N2CCC(C(=O)Nc3ccc(Cl)cc3OC(F)F)(n3ncc(F)c3C(C)C)CC2)C1 [Compound 204, (1r,3r)-3-[4-[[4-chloro-2-(difluoromethoxy)phenyl]carbamoyl]-4-(4-fluoro-5-isopropyl-pyrazol-1-yl)-1-piperidyl]-1-methoxy-cyclobutanecarboxylic acid] | 46.9 nM
CC1(C)COc2cnn(C3(C(=O)Nc4ccc(Cl)cc4OC(F)F)CCN([C@H]4C[C@@H](C(=O)O)C4)CC3)c21 [Compound 103, (1s,3s)-3-[4-[[4-chloro-2-(difluoromethoxy)phenyl]carbamoyl]-4-(6,6-dimethyl-5H-furo[3,2-c]pyrazol-1-yl)-1-piperidyl]cyclobutanecarboxylic acid] | 164 nM
CC(C)c1c(F)cnn1C1(C(=O)Nc2ccc(Cl)cc2OC(F)F)CCN([C@H]2C[C@](C)(C(=O)O)C2)CC1 [Compound 212, (1r,3r)-3-[4-[[4-chloro-2-(difluoromethoxy)phenyl]carbamoyl]-4-(4-fluoro-5-isopropyl-pyrazol-1-yl)-1-piperidyl]-1-methyl-cyclobutanecarboxylic acid] | 46.3 nM
COCC[C@H](CN1CCC(C(=O)Nc2ccc(Cl)cc2OC(F)F)(n2ncc(F)c2C(C)C)CC1)C(=O)O [Compound 191, (2R)-2-[[4-[[4-chloro-2-(difluoromethoxy)phenyl]carbamoyl]-4-(4-fluoro-5-isopropyl-pyrazol-1-yl)-1-piperidyl]methyl]-4-methoxy-butanoic acid] | 33.4 nM
COc1ccc([C@@H](CN2CCC(C(=O)Nc3ccc(Cl)cc3OC(F)F)(n3nccc3C(C)C)CC2)C(=O)O)cc1 [Compound 29, (2S)-3-[4-[[4-chloro-2-(difluoromethoxy)phenyl]carbamoyl]-4-(5-isopropylpyrazol-1-yl)-1-piperidyl]-2-(4-methoxyphenyl) propanoic acid] | 4.75 nM
CC(C)c1ccnn1C1(C(=O)Nc2ccc(Cl)cc2OC(F)F)CCN(C[C@H](C(=O)O)[C@H]2CCOC2)CC1 [Compound 148, (2R)-3-[4-[[4-chloro-2-(difluoromethoxy)phenyl]carbamoyl]-4-(5-isopropylpyrazol-1-yl)-1-piperidyl]-2-[(3R)-tetrahydrofuran-3-yl]propanoic acid] | 50.4 nM
CC(C)c1ccnn1C1(C(=O)Nc2ccc(Cl)cc2OC(F)F)CCN(CC(CO)C(=O)O)CC1 (stereo not drawn) [Compound 120, 2-[[4-[[4-chloro-2-(difluoromethoxy)phenyl]carbamoyl]-4-(5-isopropylpyrazol-1-yl)-1-piperidyl]methyl]-3-hydroxy-propanoic acid] | 34.7 nM
CC(C)c1c(F)cnn1C1(C(=O)Nc2ccc(Cl)cc2OC(F)F)CCN(CC(C)(C)C(=O)O)CC1 [Compound 240, 3-[4-[[4-chloro-2-(difluoromethoxy)phenyl]carbamoyl]-4-(4-fluoro-5-isopropyl-pyrazol-1-yl)-1-piperidyl]-2,2-dimethyl-propanoic acid] | 23.8 nM

Further lines, results first:

IC50 | SMILES
28.4 nM | CC(C)c1ccnn1C1(C(=O)Nc2ccc(Cl)cc2OC(F)F)CCN(CC2(C(=O)O)CCOC2)CC1 (stereo in doubt) [Compound 23, (3S)-3-[[4-[[4-chloro-2-(difluoromethoxy)phenyl]carbamoyl]-4-(5-isopropylpyrazol-1-yl)-1-piperidyl]methyl]tetrahydrofuran-3-carboxylic acid]
73.2 nM | CC(C)c1ccnn1C1(C(=O)Nc2ccc(Cl)cc2OC(F)F)CCN(CC2(CC(=O)O)CC2)CC1 [Compound 49, 2-[1-[[4-[[4-chloro-2-(difluoromethoxy)phenyl]carbamoyl]-4-(5-isopropylpyrazol-1-yl)-1-piperidyl]methyl]cyclopropyl]acetic acid]
34.5 nM | CC(C)c1ccnn1C1(C(=O)Nc2ccc(Cl)cc2OC(F)F)CCN([C@H]2C[C@@H](C(=O)O)C2)CC1 (single isomer, unassigned) [Compound 61, (1s,3s)-3-[4-[[4-chloro-2-(difluoromethoxy)phenyl]carbamoyl]-4-(5-isopropylpyrazol-1-yl)-1-piperidyl]cyclobutanecarboxylic acid]
30.6 nM | COc1cnn(C[C@@H](CN2CCC(C(=O)Nc3ccc(Cl)cc3OC(F)F)(n3nccc3C(C)C)CC2)C(=O)O)c1 [Compound 201, (2R)-2-[[4-[[4-chloro-2-(difluoromethoxy)phenyl]carbamoyl]-4-(5-isopropylpyrazol-1-yl)-1-piperidyl]methyl]-3-(4-methoxypyrazol-1-yl)propanoic acid]
51.5 nM | CCC(=O)N1CC(CN2CCC(C(=O)Nc3ccc(Cl)cc3OC(F)F)(n3nccc3C(C)C)CC2)(C(=O)O)C1 [Compound 64, 3-[[4-[[4-chloro-2-(difluoromethoxy)phenyl]carbamoyl]-4-(5-isopropylpyrazol-1-yl)-1-piperidyl]methyl]-1-propanoyl-azetidine-3-carboxylic acid]
56.5 nM | COCCC(=O)N1CCC(CN2CCC(C(=O)Nc3ccc(Cl)cc3OC(F)F)(n3nccc3C(C)C)CC2)(C(=O)O)CC1 [Compound 54, 4-[[4-[[4-chloro-2-(difluoromethoxy)phenyl]carbamoyl]-4-(5-isopropylpyrazol-1-yl)-1-piperidyl]methyl]-1-(3-methoxypropanoyl) piperidine-4-carboxylic acid]
75 nM | CC(C)c1ccnn1C1(C(=O)Nc2ccc(Cl)cc2OC(F)F)CCN(C[C@@H](C(=O)O)[C@@H]2CCOC2)CC1 (single isomer, unassigned) [Compound 151]
52.6 nM | CC(C)c1ccnn1C1(C(=O)Nc2ccc(Cl)cc2OC(F)F)CCN(CC(C(=O)O)C2CCOCC2)CC1 (stereo not drawn) [Compound 11, 3-[4-[[4-chloro-2-(difluoromethoxy)phenyl]carbamoyl]-4-(5-isopropylpyrazol-1-yl)-1-piperidyl]-2-tetrahydropyran-4-yl-propanoic acid]
